Experimental data from the supplement of paper PMC13380429.

What was measured:
[1] = test system: A549-ACE2 infected with SARS-CoV-2; experiment: cell count relative to DMSO; higher = less toxic; details: 24 h
Caco-2 [2] = experiment: cell viability relative to DMSO; higher = less toxic; details: 72 h
Calu-3 [3] = experiment: as above; details: 72 h
HepG2 [4] = experiment: as above; details: 72 h
U2OS [5] = experiment: as above; details: 72 h
Vero E6 [6] = experiment: as above; details: 72 h
[7] = test system: A549-ACE2 infected with SARS-CoV-2; experiment: SARS-CoV-2 infection rate relative to DMSO; higher = more infection; details: 24 h
A549-ACE2 [8] = experiment: drug-induced phospholipidosis relative to tamoxifen; higher = more phospholipidosis
[9] = test system: A549-ACE2 infected with SARS-CoV-2; experiment: morphology score (similarity to uninfected cells); higher = more like uninfected cells; details: 24 h
Caco-2 [10] = experiment: relative viability EC50 (midpoint between 100% and the lowest measured viability); higher = less toxic; details: 72 h
Calu-3 [11] = experiment: as above; details: 72 h
U2OS [12] = experiment: as above; details: 72 h
Vero E6 [13] = experiment: as above; details: 72 h
Caco-2 [14] = experiment: drug sensitivity score (DSS) for viability; higher = more toxic; extreme values may be limits of the assay; details: 72 h
Calu-3 [15] = experiment: as above; details: 72 h
HepG2 [16] = experiment: as above; details: 72 h
U2OS [17] = experiment: as above; details: 72 h
Vero E6 [18] = experiment: as above; details: 72 h
A549-ACE2 [19] = experiment: phospholipidosis EC50; higher = less potent phospholipidosis inducer
HepG2 [20] = experiment: relative viability EC50 (midpoint between 100% and the lowest measured viability); higher = less toxic; details: 72 h

O=C(Nc1ccc(-c2ccnc(Nc3ccc(N4CCOCC4)cc3)n2)cc1)C1CCCN1 (configuration not stated) [XL019]
Details	SARS-CoV-2 infection rate, [7] [%]	cell count, [1] [%]	cell viability, Caco-2 [2] [%]	cell viability, Calu-3 [3] [%]	cell viability, HepG2 [4] [%]	cell viability, U2OS [5] [%]	cell viability, Vero E6 [6] [%]	morphology score, [9]
1 nM	–	–	89.4	109	95.1	97.9	102	–
10 nM	–	–	99.2	98	96.3	97.5	102	–
100 nM	–	–	98.7	107	89.9	98	98.5	–
0.3 µM	100	98	–	–	–	–	–	0.04
1000 nM	–	–	94.2	122	88.1	96.5	94.5	–
3 µM	101	99	–	–	–	–	–	-0.09
10 µM	86	109	–	–	–	–	–	0.26
10000 nM	–	–	86.5	119	67.5	90.6	94.6	–
30 µM	46	109	–	–	–	–	–	0.33

drug-induced phospholipidosis [%], A549-ACE2 [8]
Details	0.3 µM	0.833333 µM	3.33333 µM	6.66667 µM	10 µM	30 µM
24 h	-0.79	-8.22	-5.43	0.07	5.79	96.9
48 h	3.03	-8.76	-8.92	-8.57	-5.17	83.3
72 h	5.53	-8.19	-8.71	-9.82	-6.36	–

Details	drug sensitivity score	relative viability EC50 [µM]
Caco-2 [10]	–	> 10
Caco-2 [14]	0	–
Calu-3 [11]	–	> 10
Calu-3 [15]	0	–
HepG2 [16]	2.8	–
U2OS [12]	–	> 10
U2OS [17]	0	–
Vero E6 [13]	–	> 10
Vero E6 [18]	0	–

CCOC(=O)C1=C(COCCN)NC(C)=C(C(=O)OC)C1c1ccccc1Cl (configuration not stated) [amlodipine]
Details	SARS-CoV-2 infection rate [%]	cell count [%]	cell viability [%]	morphology score	phospholipidosis EC50 [µM]
A549-ACE2 [19], 24 h	–	–	–	–	10.9
Caco-2 [2], 1 nM	–	–	97.9	–	–
Caco-2 [2], 10 nM	–	–	102	–	–
Caco-2 [2], 100 nM	–	–	98.2	–	–
Caco-2 [2], 1000 nM	–	–	93.5	–	–
Caco-2 [2], 10000 nM	–	–	94.2	–	–
Calu-3 [3], 1 nM	–	–	93.6	–	–
Calu-3 [3], 10 nM	–	–	104	–	–
Calu-3 [3], 100 nM	–	–	94.1	–	–
Calu-3 [3], 1000 nM	–	–	102	–	–
Calu-3 [3], 10000 nM	–	–	93.9	–	–
HepG2 [4], 1 nM	–	–	97.7	–	–
HepG2 [4], 10 nM	–	–	98.1	–	–
HepG2 [4], 100 nM	–	–	91.2	–	–
HepG2 [4], 1000 nM	–	–	99.2	–	–
HepG2 [4], 10000 nM	–	–	96.4	–	–
U2OS [5], 1 nM	–	–	94.8	–	–
U2OS [5], 10 nM	–	–	102	–	–
U2OS [5], 100 nM	–	–	96.6	–	–
U2OS [5], 1000 nM	–	–	101	–	–
U2OS [5], 10000 nM	–	–	97.5	–	–
Vero E6 [6], 1 nM	–	–	96.7	–	–
Vero E6 [6], 10 nM	–	–	90.2	–	–
Vero E6 [6], 100 nM	–	–	91.1	–	–
Vero E6 [6], 1000 nM	–	–	84.8	–	–
Vero E6 [6], 10000 nM	–	–	96.1	–	–
[1], 0.3 µM	–	96	–	–	–
[1], 3 µM	–	112	–	–	–
[1], 10 µM	–	119	–	–	–
[1], 30 µM	–	91	–	–	–
[7], 0.3 µM	107	–	–	–	–
[7], 3 µM	79	–	–	–	–
[7], 10 µM	23	–	–	–	–
[7], 30 µM	30	–	–	–	–
[9], 0.3 µM	–	–	–	-0.27	–
[9], 3 µM	–	–	–	0.49	–
[9], 10 µM	–	–	–	0.92	–
[9], 30 µM	–	–	–	0.35	–

drug-induced phospholipidosis [%], A549-ACE2 [8]
Details	0.3 µM	0.833333 µM	3.33333 µM	6.66667 µM	10 µM	30 µM
24 h	4.07	-2.24	14.4	39.7	58.4	105
48 h	3.72	0.34	10.8	17.5	37	187
72 h	5.62	-0.058	6.8	13.1	21	181

Details	drug sensitivity score	relative viability EC50 [µM]
Caco-2 [10]	–	> 10
Caco-2 [14]	0	–
Calu-3 [11]	–	> 10
Calu-3 [15]	0	–
HepG2 [16]	0	–
HepG2 [20]	–	> 10
U2OS [12]	–	> 10
U2OS [17]	0	–
Vero E6 [13]	–	> 10
Vero E6 [18]	0	–

C[C@H]1CCC/C=C/[C@@H]2C[C@H](O)C[C@H]2[C@H](O)/C=C/C(=O)O1 [brefeldin-A]
Details	SARS-CoV-2 infection rate, [7] [%]	cell count, [1] [%]	cell viability, Caco-2 [2] [%]	cell viability, Calu-3 [3] [%]	cell viability, HepG2 [4] [%]	cell viability, U2OS [5] [%]	cell viability, Vero E6 [6] [%]	morphology score, [9]
1 nM	–	–	96.6	108	95.6	99.5	95.3	–
10 nM	–	–	89.7	97.1	96.6	99.3	101	–
0.1 µM	33	108	–	–	–	–	–	0.73
100 nM	–	–	71.9	32.3	21.9	22.8	28.4	–
0.3 µM	42	52	–	–	–	–	–	0.14
1 µM	16	38	–	–	–	–	–	0.32
1000 nM	–	–	26.8	15.4	14.2	0.2	3.5	–
3 µM	30	35	–	–	–	–	–	0.26
10000 nM	–	–	28.8	10.7	14.6	0.1	3.3	–

A549-ACE2 [8], 24 h
Details	drug-induced phospholipidosis [%]
0.3 µM	-4.02
0.833333 µM	-5.26
3.33333 µM	-7.24
10 µM	-7

Details	drug sensitivity score	relative viability EC50 [µM]
Caco-2 [10]	–	0.13
Caco-2 [14]	16.3	–
Calu-3 [11]	–	0.0555
Calu-3 [15]	24.5	–
HepG2 [16]	25.6	–
HepG2 [20]	–	0.0379
U2OS [12]	–	0.0612
U2OS [17]	26.8	–
Vero E6 [13]	–	0.066
Vero E6 [18]	25.7	–

CNCCC(Oc1ccc(C(F)(F)F)cc1)c1ccccc1 (configuration not stated) [fluoxetine]
Details	morphology score, 0.3 µM	morphology score, 3 µM	morphology score, 10 µM	morphology score, 30 µM	phospholipidosis EC50, 24 h [µM]	phospholipidosis EC50, 48 h [µM]	phospholipidosis EC50, 72 h [µM]
A549-ACE2 [19]	–	–	–	–	7.05	7.62	7.61
[9]	0.06	0.65	0.87	0.74	–	–	–

Details	drug sensitivity score
Calu-3 [15]	0.3
HepG2 [16]	1.6
U2OS [17]	0
Vero E6 [18]	0.2

CN1CCN(C2CCN(C(=O)Nc3cc(Oc4ccc(NC(=O)C5(C(=O)Nc6ccc(F)cc6)CC5)c(F)c4)ccn3)CC2)CC1 [golvatinib]
Details	SARS-CoV-2 infection rate [%]	cell count [%]	cell viability [%]	morphology score	phospholipidosis EC50 [µM]
A549-ACE2 [19], 24 h	–	–	–	–	4.22
A549-ACE2 [19], 48 h	–	–	–	–	9.68
A549-ACE2 [19], 72 h	–	–	–	–	11.3
Caco-2 [2], 1 nM	–	–	102	–	–
Caco-2 [2], 10 nM	–	–	89.1	–	–
Caco-2 [2], 100 nM	–	–	95	–	–
Caco-2 [2], 1000 nM	–	–	87.9	–	–
Caco-2 [2], 10000 nM	–	–	44.2	–	–
Calu-3 [3], 1 nM	–	–	92.4	–	–
Calu-3 [3], 10 nM	–	–	105	–	–
Calu-3 [3], 100 nM	–	–	97.1	–	–
Calu-3 [3], 1000 nM	–	–	106	–	–
Calu-3 [3], 10000 nM	–	–	63.4	–	–
HepG2 [4], 1 nM	–	–	97.8	–	–
HepG2 [4], 10 nM	–	–	95.5	–	–
HepG2 [4], 100 nM	–	–	102	–	–
HepG2 [4], 1000 nM	–	–	77.6	–	–
HepG2 [4], 10000 nM	–	–	1.4	–	–
U2OS [5], 1 nM	–	–	96.7	–	–
U2OS [5], 10 nM	–	–	102	–	–
U2OS [5], 100 nM	–	–	97.6	–	–
U2OS [5], 1000 nM	–	–	104	–	–
U2OS [5], 10000 nM	–	–	61.2	–	–
Vero E6 [6], 1 nM	–	–	95.3	–	–
Vero E6 [6], 10 nM	–	–	97.5	–	–
Vero E6 [6], 100 nM	–	–	95	–	–
Vero E6 [6], 1000 nM	–	–	91.3	–	–
Vero E6 [6], 10000 nM	–	–	59.6	–	–
[1], 0.1 µM	–	94	–	–	–
[1], 0.3 µM	–	101	–	–	–
[1], 1 µM	–	103	–	–	–
[1], 3 µM	–	110	–	–	–
[7], 0.1 µM	107	–	–	–	–
[7], 0.3 µM	104	–	–	–	–
[7], 1 µM	95	–	–	–	–
[7], 3 µM	50	–	–	–	–
[9], 0.1 µM	–	–	–	-0.16	–
[9], 0.3 µM	–	–	–	-0.14	–
[9], 1 µM	–	–	–	0.12	–
[9], 3 µM	–	–	–	0.64	–

drug-induced phospholipidosis [%], A549-ACE2 [8]
Details	0.3 µM	0.833333 µM	3.33333 µM	6.66667 µM	10 µM	30 µM
24 h	1.8	1.61	20.9	69	79.8	76.4
48 h	3.53	3.1	11.1	42.2	75.9	–
72 h	5.78	3.08	10.8	36.2	67.2	–

Details	drug sensitivity score	relative viability EC50 [µM]
Caco-2 [10]	–	1.66
Caco-2 [14]	5	–
Calu-3 [15]	1.4	–
HepG2 [16]	9	–
HepG2 [20]	–	1.63
U2OS [17]	1.6	–
Vero E6 [18]	3.4	–

COc1ccc2c(C)nc(Nc3nc(C)c(C)c(O)n3)nc2c1 [madrasin]
Details	SARS-CoV-2 infection rate, [7] [%]	cell count, [1] [%]	cell viability, Caco-2 [2] [%]	cell viability, Calu-3 [3] [%]	cell viability, HepG2 [4] [%]	cell viability, U2OS [5] [%]	cell viability, Vero E6 [6] [%]	morphology score, [9]
1 nM	–	–	105	94.7	89.9	98.6	82.8	–
10 nM	–	–	99.2	84	95.4	98.1	99.1	–
100 nM	–	–	119	97	90.9	102	91	–
0.3 µM	90	102	–	–	–	–	–	0.29
1000 nM	–	–	101	108	92.7	98.8	98.1	–
3 µM	88	105	–	–	–	–	–	0.36
10 µM	96	102	–	–	–	–	–	0.21
10000 nM	–	–	98.3	94.6	93.5	97	111	–
30 µM	1	95	–	–	–	–	–	0.75

drug-induced phospholipidosis [%], A549-ACE2 [8]
Details	0.3 µM	0.833333 µM	3.33333 µM	6.66667 µM	10 µM	30 µM
24 h	2.49	-0.05	-3.35	-1.32	1.34	56
48 h	3.81	-2.33	-1.09	0.46	1.75	–
72 h	0.061	-7.49	0.0944	-0.243	1.1	–

Details	drug sensitivity score	relative viability EC50 [µM]
Caco-2 [10]	–	> 10
Caco-2 [14]	0	–
Calu-3 [11]	–	> 10
Calu-3 [15]	0	–
HepG2 [16]	0	–
HepG2 [20]	–	> 10
U2OS [12]	–	> 10
U2OS [17]	0	–
Vero E6 [13]	–	> 10
Vero E6 [18]	0	–
